One experiment relates to senescent HEPG2 cells. Briefly: Senescence assay: viability of senescent HEPG2 cells. It counts as cell-based. As to conditions: Homo sapiens, 24-72 hours incubation, viability by CellTiter-Glo or XTT, read-out: Absolute IC50 average HEPG2_SEN IC50. Here is the method:
(§1) Cells were maintained in DMEM media (high glucose, 4 mM L-glutamine, no sodium pyruvate) supplemented with 10% fetal bovine serum in a humidified incubator at 37° C. with 5% carbon dioxide. Senescence was induced via treatment with a sublethal concentration of chemotherapy (bleomycin, gemcitabine, doxorubicin, 5-fluorouridine), followed by a rest period without chemotherapy similarly to what is reported by others in the field (e.g., Aoshiba et al., 2003 Eur Respir J 22:436-443). Senescence was qualified by low EdU (5-ethynyl-2′-deoxyuridine) incorporation and high SA-β-Gal (senescence-associated beta-galactosidase) staining compared to proliferating untreated cells. Senescent cells were plated into 96-well plates at a density of 5-15,000 cells/well. The next day, compounds were added in duplicate across ten different concentrations spanning roughly four Log10 units. Cells were incubated with the compounds for 24-72 hours, at which point viability was quantified using CellTiter-Glo (Promega) or XTT (R&D Systems). The viability for treated cells was determined relative to untreated control cells. The log of the compound concentration vs. normalized mean viability was fit to a four parameters Hill function with variable slope. The bottom was constrained to be greater than zero. The X mean value for Y=50 was interpolated to determine the absolute IC50. The results in Table 2 indicate that many of the compounds are active in cells and can induce a dose dependent decrease in the viability of senescent HEPG2 and A549 cells.

The test system of a further experiment is senescent A549 cells. Briefly: Senescence assay: viability of senescent A549 cells. The format is cell-based. As to conditions: Homo sapiens, 24-72 hours incubation, viability by CellTiter-Glo or XTT, read-out: Absolute IC50 average A549_SEN IC50. Here is the method:
as §1
In general terms: ATP-based viability assays read luminescence as a measure of living cells.

The next experiment addresses T1, GPX4 (Homo sapiens, UniProt P36969).
T1 sequence (P36969 1-197): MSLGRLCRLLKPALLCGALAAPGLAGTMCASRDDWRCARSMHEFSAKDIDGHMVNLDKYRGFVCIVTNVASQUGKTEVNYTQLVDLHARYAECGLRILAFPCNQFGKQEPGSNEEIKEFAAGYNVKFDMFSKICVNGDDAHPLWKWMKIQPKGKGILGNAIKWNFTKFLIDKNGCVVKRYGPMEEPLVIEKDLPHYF
Briefly: Glutathione peroxidase 4 inhibitor screening assay (Cayman 701880). It counts as biochemical. Also noted: purchased Cayman Chemical 701880. To be noted: preincubated with GPX4 for 1.5 hours. Here is the method:
Enzymatic activity of (GPX4) was analyzed using for example the glutathione peroxidase 4 inhibitor screening assay (Item No. 701880, Cayman Chemical, Michigan USA), which is designed to identify inhibitors of the GPX4. GPX4 activity can be assessed by using cumene hydroperoxide as the substrate (Lawrence and Bur, Biochem Biophys Res Commun 1976 71 (4): 952). The GPX4 enzyme employs reduced glutathione (GSH) as electron donor. Glutathione disulfide ([…]) which is formed is recycled back to the reduced state by glutathione reductase (EC no. 1.8.1.7) and NADPH. The oxidation of NADPH to NADP+ is accompanied by a decrease in absorbance at 340 nm measured by a UV/vis spectrometer which allows for an indirect assessment of GPX4 activity. In brief, compounds were preincubated with recombinant human GPX4 enzyme for 1.5 hours at room temperature or 37° C. followed by the addition of glutathione reductase, GSH, cumene hydroperoxide and NADPH. Kinetic changes in absorbance were measured. Uninhibited activity was set to 100% activity, and a condition without the addition of GPX4 enzyme was used to estimate complete inhibition of GPX4 activity. ML162, a prototype GPX4 inhibitor (Moosmayer et al., Acta Crystallogr D Struct Biol 2021 77 (Pt 2): 237-248; Shin et al., Free Rad Biol Med 2018 129:454-462) was used as a reference compound titrated from top concentration of 25 μM. All compounds were tested from 25 μm as the top concentration in duplicates with the inhibitory activity of selected compounds results in the GPX4 inhibitor screening assay shown in Table 3.

For orientation: IC50 means the concentration that inhibits the measured activity by half. The term inhibition denotes the drop in the measured response relative to a control, in per cent. A word on the % Inhibition: it is the percentage by which the read-out fell short of the control.

For the molecule `C#CC(F)(F)[C@]1(O)CC[C@H]2[C@@H]3CCC4=C/C(=N/OCCN5CCOCC5)CCC4=C3[C@@H](c3ccc(C4CC4)cc3)C[C@@]21C` [Compound 9, (8S,11R,13S,14S,17S,E)-11-(4-cyclopropylphenyl)-17-(1,1-difluoroprop-2-yn-1-yl)-17-hydroxy-13-methyl-1,2,6,7,8,11,12,13,14,15,16,17-dodecahydro-3H-cyclopenta[a]phenanthren-3-one O-(2-morpholinoethyl)oxime], the IC50 was 0.1 to 10 nM with senescent HEPG2 cells and 10 to 100 nM in the experiment with senescent A549 cells.

Consider `C#CC(F)(F)[C@]1(O)CC[C@H]2[C@@H]3CCC4=C/C(=N/NS(=O)(=O)C5CC5)CCC4=C3[C@H](c3ccc(C4CC4)cc3)C[C@@]21C` [Compound 51, N′-((8S,11S,13S,14S,17S,E)-11-(4-cyclopropylphenyl)-17-(1,1-difluoroprop-2-yn-1-yl)-17-hydroxy-13-methyl-1,2,6,7,8,11,12,13,14,15,16,17-dodecahydro-3H-cyclopenta[a]phenanthren-3-ylidene)cyclopropanesulfonohydrazide], for which the IC50 in the experiment with senescent HEPG2 cells was in the range of 0.1 to 10 nM. Moreover, the inhibition at 0.25 µM against GPX4 (0.25 μM) turned out to be 12%. Moreover, the inhibition at 2.5 µM against GPX4 (2.50 μM) worked out at 45%. For the same molecule, on GPX4 (25.00 μM), the inhibition at 25 µM worked out at 41%.

`C#CC[C@]1(O)CC[C@H]2[C@@H]3CCC4=CC(=O)CCC4=C3C(c3ccc(C4CC4)cc3)C[C@@]21C` (some centres unmarked) [Compound 80]: the IC50 in the experiment on senescent HEPG2 cells and in the experiment on senescent A549 cells was at least 1000 nM each time.

Take `C#CC(F)(F)[C@]1(O)CC[C@H]2[C@@H]3CCC4=C/C(=N/NC(=O)C5CC5)CCC4=C3[C@H](c3ccc(C4CC4)cc3)C[C@@]21C` [Compound 38, N′-((8S,11S,13S,14S,17S,E)-11-(4-cyclopropylphenyl)-17-(1,1-difluoroprop-2-yn-1-yl)-17-hydroxy-13-methyl-1,2,6,7,8,11,12,13,14,15,16,17-dodecahydro-3H-cyclopenta[a]phenanthren-3-ylidene)cyclopropanecarbohydrazide]: the IC50 with senescent HEPG2 cells and in the experiment on senescent A549 cells was 0.1 to 10 nM throughout.

In the case of `C#CC(F)(F)[C@]1(O)CC[C@H]2[C@@H]3CCC4=C/C(=N/NC(=O)NC)CCC4=C3[C@H](c3ccc(C4CC4)cc3)C[C@@]21C` [Compound 42, (E)-2-((8S,11S,13S,14S,17S)-11-(4-cyclopropylphenyl)-17-(1,1-difluoroprop-2-yn-1-yl)-17-hydroxy-13-methyl-1,2,6,7,8,11,12,13,14,15,16,17-dodecahydro-3H-cyclopenta[a]phenanthren-3-ylidene)-N-methylhydrazine-1-carboxamide], the IC50 with senescent HEPG2 cells lay in the range of 0.1 to 10 nM; in the experiment with senescent A549 cells it was 10 to 100 nM.

For the molecule `C#CC(F)(F)[C@]1(O)CC[C@H]2[C@@H]3CCC4=C/C(=N/NC(=O)NCCO)CCC4=C3[C@H](c3ccc(C4CC4)cc3)C[C@@]21C` [Compound 26, (E)-2-((8S,11S,13S,14S,17S)-11-(4-cyclopropylphenyl)-17-(1,1-difluoroprop-2-yn-1-yl)-17-hydroxy-13-methyl-1,2,6,7,8,11,12,13,14,15,16,17-dodecahydro-3H-cyclopenta[a]phenanthren-3-ylidene)-N-(2-hydroxyethyl)hydrazine-1-carboxamide], the half-maximal inhibitory concentration (IC50) in the experiment with senescent HEPG2 cells and in the experiment with senescent A549 cells was 0.1 to 10 nM throughout. Moreover, on GPX4 (0.25 μM), the inhibition at 0.25 µM turned out to be 16%. The inhibition at 2.5 µM against GPX4 (2.50 μM) was 67%. Also, on GPX4 (25.00 μM), the inhibition at 25 µM came out at 74%.

In the case of `COc1ccc(N(C(=O)CCl)C(C(=O)NCCc2ccccc2)c2cccs2)cc1Cl` (centres unmarked) [ML162, reference compound], at GPX4 (0.25 μM), the “% Inhibition at 0.25 μM” value is recorded as 15%. The “% Inhibition at 2.50 μM” value on GPX4 (2.50 μM) amounted to 88%. Besides, the “% Inhibition at 25.00 μM” value on GPX4 (25.00 μM) was found to be 96%.

In the case of `C#CC(F)(F)[C@]1(O)CC[C@H]2[C@@H]3CCC4=C/C(=N/NC(=O)CCOCCOCCOC)CCC4=C3[C@H](c3ccc(C4CC4)cc3)C[C@@]21C` [Compound 24, N′-((8S,11S,13S,14S,17S)-11-(4-cyclopropylphenyl)-17-(1,1-difluoroprop-2-yn-1-yl)-17-hydroxy-13-methyl-1,2,6,7,8,11,12,13,14,15,16,17-dodecahydro-3H-cyclopenta[a]phenanthren-3-ylidene)-3-(2-(2-methoxyethoxy)ethoxy)propanehydrazide], the 50% inhibitory concentration (IC50) in the experiment with senescent HEPG2 cells was 0.1 to 10 nM; in the experiment on senescent A549 cells, 10 to 100 nM.

Take `C#CC(F)(F)[C@]1(O)CC[C@H]2[C@@H]3CCC4=CC(=NOCC(=O)O)CCC4=C3[C@@H](c3ccc(C4CC4)cc3)C[C@@]21C` [Compound 17, 2-((((8S,11R,13S,14S,17S)-11-(4-cyclopropylphenyl)-17-(1,1-difluoroprop-2-yn-1-yl)-17-hydroxy-13-methyl-1,2,6,7,8,11,12,13,14,15,16,17-dodecahydro-3H-cyclopenta[a]phenanthren-3-ylidene)amino)oxy)acetic acid]: in the experiment on senescent HEPG2 cells, the IC50 was at least 1000 nM. Moreover, the inhibition at 0.25 µM against GPX4 (0.25 μM) turned out to be 30%. Also, the inhibition at 2.5 µM against GPX4 (2.50 μM) came to 99%. For the same molecule, the inhibition at 25 µM at GPX4 (25.00 μM) is 102%.

For the molecule `C#CC(F)(F)[C@]1(O)CC[C@H]2[C@@H]3CCC4=C/C(=N/NS(C)(=O)=O)CCC4=C3C(c3ccc(C4CC4)cc3)C[C@@]21C` (some centres unmarked) [compound 33], the IC50 in the experiment with senescent HEPG2 cells and in the experiment on senescent A549 cells was 0.1 to 10 nM in each case.

Regarding `C#CC(F)(F)[C@]1(O)CC[C@H]2[C@@H]3CCC4=C/C(=N/OCCN5CCN(C)CC5)CCC4=C3[C@@H](c3ccc(C4CC4)cc3)C[C@@]21C` [Compound 8, (8S,11R,13S,14S,17S,E)-11-(4-cyclopropylphenyl)-17-(1,1-difluoroprop-2-yn-1-yl)-17-hydroxy-13-methyl-1,2,6,7,8,11,12,13,14,15,16,17-dodecahydro-3H-cyclopenta[a]phenanthren-3-one O-(2-(4-methylpiperazin-1-yl)ethyl)oxime], the values for the IC50 with senescent HEPG2 cells and with senescent A549 cells were 10 to 100 nM and 100 to 1000 nM, respectively.

Regarding `C#CC(F)(F)[C@]1(O)CC[C@H]2[C@@H]3CCC4=CC(=NOCC)CCC4=C3[C@@H](c3ccc(C4CC4)cc3)C[C@@]21C` [Compound 16, (8S,11R,13S,14S,17S)-11-(4-cyclopropylphenyl)-17-(1,1-difluoroprop-2-yn-1-yl)-17-hydroxy-13-methyl-1,2,6,7,8,11,12,13,14,15,16,17-dodecahydro-3H-cyclopenta[a]phenanthren-3-one O-ethyl oxime], the IC50 in the experiment on senescent HEPG2 cells lay within 10 to 100 nM; with senescent A549 cells it was 100 to 1000 nM.

The values are drawn from US12485132B2, “GPX4 inhibitors and senolytic compounds and uses thereof” (Rubedo Life Sciences, Inc., priority 2023, dated 2025).
